In patent US9580429B2, “Pyrrolo[3,2-D]pyrimidin-4-one derivatives and their use in therapy” (ASTRAZENECA AB, priority 2004, dated 2017):

These molecules were tested against T1, human MPO (Homo sapiens, UniProt P05164) (assay: MPO inhibition screen (TMB oxidation, absorbance)). Conditions: in the presence of tyrosine (final 8 μM); human MPO 2.5 nM; H2O2 100 μM.
T1 sequence (P05164 49-745): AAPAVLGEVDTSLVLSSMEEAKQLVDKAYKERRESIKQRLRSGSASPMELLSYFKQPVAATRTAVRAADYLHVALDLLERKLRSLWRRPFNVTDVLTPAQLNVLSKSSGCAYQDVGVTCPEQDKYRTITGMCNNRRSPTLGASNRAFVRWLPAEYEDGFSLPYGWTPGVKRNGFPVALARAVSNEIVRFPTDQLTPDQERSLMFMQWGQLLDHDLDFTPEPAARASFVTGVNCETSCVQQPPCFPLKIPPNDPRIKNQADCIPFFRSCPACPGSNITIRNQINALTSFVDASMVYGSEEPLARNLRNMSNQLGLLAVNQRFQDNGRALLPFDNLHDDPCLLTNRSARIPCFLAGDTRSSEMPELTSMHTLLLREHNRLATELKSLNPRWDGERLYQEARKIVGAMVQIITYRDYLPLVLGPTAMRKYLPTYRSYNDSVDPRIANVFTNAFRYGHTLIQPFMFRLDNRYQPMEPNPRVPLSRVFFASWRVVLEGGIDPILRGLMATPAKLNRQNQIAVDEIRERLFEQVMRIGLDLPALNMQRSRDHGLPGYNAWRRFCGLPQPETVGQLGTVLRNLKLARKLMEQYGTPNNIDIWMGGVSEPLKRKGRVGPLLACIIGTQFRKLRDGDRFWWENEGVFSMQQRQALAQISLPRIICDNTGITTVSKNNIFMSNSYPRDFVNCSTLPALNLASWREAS
Type: biochemical
Method: Methods for the determination of MPO inhibitory activity are disclosed in patent application WO 02/090575. The pharmacological activity of compounds according to the invention was tested in the following screen in which the compounds were either tested alone or in the presence of added tyrosine:
Assay buffer: 20 mM sodium/potassium phosphate buffer pH 6.5 containing 10 mM taurine and 100 mM NaCl.
Developing reagent: 2 mM 3,3′,5,5′-tetramethylbenzidine (TMB), 200 μM KI, 200 mM acetate buffer pH 5.4 with 20% DMF.
To 10 μl of diluted compounds in assay buffer, 40 μl of human MPO (final concentration 2.5 nM), with or without 20 μM tyrosine (final concentration, if present, 8 μM), was added and the mixture was incubated for 10 minutes at ambient temperature. Then 50 μl of H2O2 (final concentration 100 μM), or assay buffer alone as a control, were added. After incubation for 10 minutes at ambient temperature, the reaction was stopped by adding 10 μl 0.2 mg/ml of catalase (final concentration 18 μg/ml). The reaction mixture was left for an additional 5 minutes before 100 μl of TMB developing reagent was added. The amount of oxidised 3,3′,5,5′-tetramethylbenzidine formed was then measured after about 5 minutes using absorbance spectroscopy at about […]. IC50 values were then determined using standard procedures.

**Q.** With `CCOC(C)(C)Cn1c(=S)[nH]c(=O)c2[nH]ccc21` [Example 11, 1-(2-Ethoxy-2-methylpropyl)-2-thioxo-1,2,3,5-tetrahydro-pyrrolo[3,2-d]pyrimidin-4-one] as the molecule, how does the IC50 read?
**A.** The IC50 was 1100 nM.

**Q.** With `CC(C)Cn1c(=S)[nH]c(=O)c2[nH]ccc21` [Example 2, 1-Isobutyl-2-thioxo-1,2,3,5-tetrahydro-pyrrolo[3,2-d]pyrimidin-4-one] as the molecule, how does the IC50 read?
**A.** Its IC50 is 260 nM.

**Q.** `CCCOc1cccc(Cn2c(=S)[nH]c(=O)c3[nH]ccc32)c1OCCOC` [Example 5, 1-[2-(2-Methoxyethoxy)-3-propoxybenzyl]-2-thioxo-1,2,3,5-tetrahydro-pyrrolo[3,2-d]pyrimidin-4-one] was tested. Which IC50 did it give?
**A.** The IC50 was 220 nM.
